According to patent US12698279B2, “Polymorphs of a hydrochloride salt of PN6047” (Pharmnovo AB, priority 2020, dated 2026):
Several values for one entry are separate records, joined by “and”; a condition that tells them apart may be missing. Equal entries are not always repeated. Entries after “also recorded” stand apart in the source; their conditions may differ. Where two headings read alike, the source gives them in different places.

How the values were obtained:
[1] = Dynamic vapour sorption (DVS) hygroscopicity; format: physicochemical; conditions: for hygroscopicity (classification as per the European Pharmacopoeia) / water uptake: 25° C./80% RH; for form by HT-XRPD after the DVS cycle: sorption-desorption-sorption 40-95-0-45% RH
Procedure: Analyses were performed on a DVS-1 system from Surface Measurement Systems (London, UK). Weight equilibration per step was set at dm/dt<0.002 for a minimum of 1 hour or a maximum of 6 hours. The sample was subjected to a sorption-desorption-sorption cycle running from 40 to 95 to 0 to 45% RH, at a constant temperature of 25° C. One cycle consisted of 20 steps, those between 0 and 90% RH were taken in 10% RH each. Afterwards the sample was measured by HT-XRPD.
Forms HCl2 and HCl3 were subjected to DVS measurements to determine the hygroscopicity of these two forms. The material initially took up water slowly with increasing relative humidity (RH) up to about 90% RH. The change in mass was approximately 3.3%, corresponding to about 1 molecule of water per molecule of PN6047. […] The material was then gradually dried from 95 to 0% RH in steps of 10% RH. The corresponding mass change upon drying was different than the initial mass increase upon hydration. Finally, from 0 to 40% RH, the water uptake proceeded in the same way as in the preceding dehydration step. […] It is believed that the uptake of the 2 additional molecules of water may have led to a change from form HCl2 to form HCl3.
The material gradually took up water with increasing relative humidity (RH) up to 95% RH. […] The material was then gradually dried from 95 to 0% RH in steps of 10% RH. The corresponding mass change upon drying was approximately the same as the initial mass increase upon hydration. Finally, from 0 to 40% RH, the water uptake proceeded in the same way as the preceding dehydration step.

[2] = Solution stability study in saline (LCMS); format: physicochemical
Procedure: Experiments were performed in saline (0.9% NaCl in water). Two stock solutions of Form HCl2 in saline were prepared, one with a concentration of 10 mg/mL and one with a concentration of 100 mg/mL. The 10 mg/mL stock solution was prepared by dissolving 56 mg of material in 5 mL of saline. The 100 mg/mL stock solution was prepared by dissolving 196.2 mg of material in 1.75 mL saline. For each experiment involving 10 mg/mL, 0.5 mL of stock solution was transferred to an HPLC vial whereas for each experiment involving 100 mg/mL, 0.15 mL of stock solution was transferred to an HPLC vial. The HPLC vials were closed with a screw cap and placed in a Crystal16™ apparatus and incubated at different temperatures.
After the incubation time, the samples were diluted with acetonitrile/water 1:1 (v/v) and measured by LCMS to determine the API peak area.

[3] = Bioavailability study in rats; format: in vivo; conditions: male, Wistar, blood, rat, single dose, vs 1 mg/kg intravenous, read-out: Bioavailability (Fabs)
Procedure: Male Wistar rats were used. Six groups of four animals each were used. Two groups were administered a single intravenous dose of 1 mg/kg of the free base or the HCl2 salt, one group was administered a single oral dose of 3 mg/kg of the free base, and three groups were administered a single oral dose of 3, 10 or 50 mg/kg of the HCl2 salt. Blood samples were collected after 0.25, 0.5, 1, 2, 4, 6, 8 and 24 hours following intravenous administration, and after 0.083, 0.25, 0.5, 1, 2, 4, 6, 8 and 24 hours following oral administration. The samples were analyzed using an LC/MS/MS system. The bioavailability (Fabs) is shown in Table 7 and was calculated as follows: […]

[4] = Incubation at high humidity or under vacuum, form by XRPD; format: physicochemical; conditions: 2 days
Procedure: To further understand the hygroscopic nature of form HCl2, a sample of the material was incubated at 85% RH at room temperature for 2 days.
A sample of Form HCl3 was further incubated at 50° C./1 mbar for 2 days to determine whether conversion to Form HCl2 would take place.

[5] = Solid-state stability study (XRPD, TGA, LCMS); format: physicochemical; conditions: for LCMS API / TGA mass loss / XRPD: solid state
Procedure: The solid-state stability of Form HCl2 was determined by incubating samples of approximately 18 mg at different conditions (temperature and relative humidity). After 1 week and 4 weeks, the samples were analyzed by XRPD to determine the polymorphic form, by TGA to determine the mass loss upon heating and by LCMS to determine the API purity. The experimental details and results are described in Table 6.

[6] = Solubility in water at pH 7; format: physicochemical
Procedure: For instance, whereas the free base only sparingly dissolves in water at pH 7 (<1 mg/mL), Forms HCl2 and HCl3 are highly soluble in water at the same pH (>100 mg/mL). The higher solubility of the HCl salt allows continued investigation of the compound at higher concentrations, which is advantageous e.g. in toxicology studies. […] It is expected that the increased bioavailability (and thus the increased exposure) of the HCl salt may lead to an improved efficacy of PN6047 in the treatment of pain and other indications as mentioned herein. Possibly, the increased bioavailability may allow the HCl salt to be administered in substantially lower doses than the free base. The unexpected increase in bioavailability of the HCl salt may also enable the use of sustained release formulations of the compound.

CN(C)C(=O)c1ccc(C(=C2CCN(Cc3cncs3)CC2)c2cccc(C(N)=O)c2)cc1 [Form HCl2, 4-[(3-carbamoylphenyl)[1-(1,3-thiazol-5-ylmethyl)piperidin-4-ylidene]methyl]-N,N-dimethylbenzamide]
relative humidity at which the form absorbs water and transforms into Form HCl3 [1]: > 85 % RH | relative humidity up to which the form is believed stable [1]: up to 85 % RH | mass increase ([1]; DVS, 25° C., from 90 to 95% RH): 10.0% | change in mass ([1]; DVS, 25° C., increasing RH up to about 90% RH): approximately 3.3% | hygroscopicity (classification as per the European Pharmacopoeia) ([1]; DVS): moderate hygroscopicity | water uptake ([1]; DVS): approximately 2.2% | hygroscopicity (classification as per the European Pharmacopoeia) ([1]; DVS, listed as form HCl2): moderately hygroscopic | water uptake ([1]; DVS, listed as form HCl2): approximately 2.2% | form by HT-XRPD after the DVS cycle ([1]; 25° C., listed as form HCl2): conversion had taken place from form HCl2 to form HCl3 | time chemically stable in saline [2]: up to 1 week | LCMS API ([2]; 10 mg/mL, 5° C., 3 d): 99.9 area % | LCMS API ([2]; 10 mg/mL, 5° C., 4 d): 99.9 area % | LCMS API ([2]; 10 mg/mL, 5° C., 7 d): 99.9 area % | LCMS API ([2]; 10 mg/mL, 25° C., 0 d): 99.9 area % | LCMS API ([2]; 10 mg/mL, 25° C., 3 d): 99.9 area % | LCMS API ([2]; 10 mg/mL, 25° C., 4 d): 99.9 area % | LCMS API ([2]; 10 mg/mL, 25° C., 7 d): 99.9 area % | LCMS API ([2]; 10 mg/mL, 40° C., 3 d): 99.9 area % | LCMS API ([2]; 10 mg/mL, 40° C., 4 d): 99.9 area % | LCMS API ([2]; 10 mg/mL, 40° C., 7 d): 99.9 area % | LCMS API ([2]; 100 mg/mL, 5° C., 3 d): 99.9 area % | LCMS API ([2]; 100 mg/mL, 5° C., 4 d): 99.9 area % | LCMS API ([2]; 100 mg/mL, 5° C., 7 d): 99.9 area % | LCMS API ([2]; 100 mg/mL, 25° C., 0 d): 99.9 area % | LCMS API ([2]; 100 mg/mL, 25° C., 3 d): 99.9 area % | LCMS API ([2]; 100 mg/mL, 25° C., 4 d): 99.9 area % | LCMS API ([2]; 100 mg/mL, 25° C., 7 d): 99.9 area % | LCMS API ([2]; 100 mg/mL, 40° C., 3 d): 99.9 area % | LCMS API ([2]; 100 mg/mL, 40° C., 4 d): 99.9 area % | LCMS API ([2]; 100 mg/mL, 40° C., 7 d): 100.0 area % | bioavailability ([3]; oral 3 mg/kg): 24% | bioavailability ([3]; oral 10 mg/kg): 35.5% | bioavailability ([3]; oral 50 mg/kg): 35% and 34.6% | form by XRPD after incubation ([4]; 85% RH, room temperature): conversion into form HCl3 had taken place | time physically stable ([5]; 25° C./60% RH, 40° C./75% RH and 60° C./38% RH): ≥ 4 weeks | LCMS API ([5]; 1 week, 25° C./60% RH): 100 area % | TGA mass loss ([5]; 1 week, 25° C./60% RH): 1.8 wt % | XRPD ([5]; 1 week, 25° C./60% RH): HCl2 | LCMS API ([5]; 1 week, 40° C./75% RH): 100 area % | TGA mass loss ([5]; 1 week, 40° C./75% RH): 1.9 wt % | XRPD ([5]; 1 week, 40° C./75% RH): HCl2 | LCMS API ([5]; 1 week, 60° C./38% RH): 100 area % | TGA mass loss ([5]; 1 week, 60° C./38% RH): 1.9 wt % | XRPD ([5]; 1 week, 60° C./38% RH): HCl2 | LCMS API ([5]; 4 weeks, 25° C./60% RH): 100 area % | TGA mass loss ([5]; 4 weeks, 25° C./60% RH): 1.5 wt % | XRPD ([5]; 4 weeks, 25° C./60% RH): HCl2 | LCMS API ([5]; 4 weeks, 40° C./75% RH): 100 area % | TGA mass loss ([5]; 4 weeks, 40° C./75% RH): 1.6 wt % | XRPD ([5]; 4 weeks, 40° C./75% RH): HCl2 | LCMS API ([5]; 4 weeks, 60° C./38% RH): 100 area % | TGA mass loss ([5]; 4 weeks, 60° C./38% RH): 1.9 wt % | XRPD ([5]; 4 weeks, 60° C./38% RH): HCl2 | LCMS API ([5]; incubation time 0): 100 area % | TGA mass loss ([5]; incubation time 0): 1.0 wt % | XRPD ([5]; incubation time 0): HCl2

CN(C)C(=O)c1ccc(C(=C2CCN(Cc3cncs3)CC2)c2cccc(C(N)=O)c2)cc1 [Form HCl3, 4-[(3-carbamoylphenyl)[1-(1,3-thiazol-5-ylmethyl)piperidin-4-ylidene]methyl]-N,N-dimethylbenzamide]
hygroscopicity (classification as per the European Pharmacopoeia) ([1]; DVS, listed as form HCl3): moderately hygroscopic | water uptake ([1]; DVS, listed as form HCl3): approximately 8.0% | form by HT-XRPD after the DVS cycle ([1]; 25° C., listed as form HCl3): form HCl3 was still present | form after drying ([4]; 50° C./1 mbar): poorly crystalline phase of Form HCl3; also recorded: less crystalline phase of Form HCl3

CN(C)C(=O)c1ccc(C(=C2CCN(Cc3cncs3)CC2)c2cccc(C(N)=O)c2)cc1 [Free base, 4-[(3-carbamoylphenyl)[1-(1,3-thiazol-5-ylmethyl)piperidin-4-ylidene]methyl]-N,N-dimethylbenzamide]
solubility in water [6]: < 1 mg/mL | bioavailability ([3]; oral 3 mg/kg): 8%
